# Experiments:
# [1] = molecular target: T1, Human glycogen phosphorylase a (Homo sapiens, UniProt P06737); experiment: Glycogen phosphorylase a activity test; type: biochemical; details: read-out: % inhibition at 10 μM; 10 μM test substance; GPa measured in reverse direction (glycogen synthesis from glucose 1-phosphate, phosphate release)
# T1 sequence (P06737 2-847 limits assumed): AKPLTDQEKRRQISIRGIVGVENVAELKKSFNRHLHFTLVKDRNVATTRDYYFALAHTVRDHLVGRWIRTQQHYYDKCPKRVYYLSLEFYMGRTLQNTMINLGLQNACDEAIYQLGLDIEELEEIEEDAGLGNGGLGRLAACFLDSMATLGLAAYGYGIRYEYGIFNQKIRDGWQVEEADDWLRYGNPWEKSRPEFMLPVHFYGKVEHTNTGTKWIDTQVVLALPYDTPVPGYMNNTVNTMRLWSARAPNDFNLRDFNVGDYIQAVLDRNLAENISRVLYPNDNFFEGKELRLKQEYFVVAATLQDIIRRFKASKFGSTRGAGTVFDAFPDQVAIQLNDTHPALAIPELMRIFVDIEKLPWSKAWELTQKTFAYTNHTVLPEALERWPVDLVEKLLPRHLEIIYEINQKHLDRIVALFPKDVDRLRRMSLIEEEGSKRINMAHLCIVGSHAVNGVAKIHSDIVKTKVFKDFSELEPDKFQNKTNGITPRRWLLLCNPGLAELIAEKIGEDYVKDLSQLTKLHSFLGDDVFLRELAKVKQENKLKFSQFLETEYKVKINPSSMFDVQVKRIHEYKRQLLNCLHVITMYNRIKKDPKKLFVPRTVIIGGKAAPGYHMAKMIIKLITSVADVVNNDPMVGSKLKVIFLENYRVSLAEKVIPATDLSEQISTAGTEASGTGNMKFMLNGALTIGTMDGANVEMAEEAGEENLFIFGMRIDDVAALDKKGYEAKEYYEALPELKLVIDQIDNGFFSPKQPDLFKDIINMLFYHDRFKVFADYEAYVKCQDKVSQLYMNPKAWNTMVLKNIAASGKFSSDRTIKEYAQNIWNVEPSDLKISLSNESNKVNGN
# Experimental: Glycogen Phosphorylase a Activity Test
# All the reactions were carried out as duplicate determinations in 96-well microtiter plates (Half Area Plates, Costar No. 3696), with the change in absorption due to the formation of the reaction product being measured, at the wavelength specified below, in a Multiscan Ascent Elisa Reader (Lab Systems, Finland). In order to measure the enzymic activity of GPa in the reverse direction, the conversion of glucose 1-phosphate into glycogen and inorganic phosphate was measured in accordance with the general method of Engers et al. (Engers H D, Shechosky S, Madsen N B, Can J Biochem 1970 July;48(7): 746–754) but with the following modifications: Human glycogen phosphorylase a (for example containing 0.76 mg of protein/ml (Aventis Pharma Deutschland GmbH), dissolved in buffer solution E (25 mM β-glycerophosphate, pH 7.0, 1 mM EDTA and 1 mM dithiothreitol), was diluted with buffer T (50 mM Hepes, pH 7.0, 100 mM KCl, 2.5 mM EDTA, 2.5 mM MgCl2.6H2O), and addition of 5 mg of glycogen/ml, to a concentration of 10 μg of protein/ml. […] The basal value of the activity of the glycogen phosphorylase a in the absence of test substance was determined by adding 10 μl of buffer solution T (0.1% DMSO). […] After 60 minutes of incubation at 45° C., the absorption was measured at 820 nm. […]
smiles,measurement,setting,value
"O=C(NC(=O)c1cc(F)c(F)cc1Cl)Nc1ccc(C(=O)O)cc1OC(F)(F)F [Example 48, 4-[3-(2-Chloro-4,5-difluorobenzoyl)ureido]-3-trifluoromethoxybenzoic acid]",inhibition at 10 µM,[1],99%
same,melting point,,236 °C
